Measurements reported in ChEMBL document CHEMBL1287698, “Artemisinin-quinoline hybrid-dimers: synthesis and in vitro antiplasmodial activity” (Bioorg Med Chem Lett, 2010).

Columns and labels:
[1] = tested on: CHO; assay: Cytotoxicity against CHO cells by MTT assay; type: cell-based; conditions: Cricetulus griseus
[2] = tested on: Plasmodium falciparum; assay: Antiplasmodial activity against chloroquine-resistant Plasmodium falciparum Dd2; type: functional, organism-based
[3] = tested on: Plasmodium falciparum; assay: Resistance index, ratio of IC50 for chloroquine-resistant Plasmodium falciparum Dd2 to IC50 for chloroquine-sensitive Plasmodium falciparum D10; type: functional
[4] = Selectivity index, ratio of IC50 for CHO cells to IC50 of chloroquine-sensitive Plasmodium falciparum D10; type: toxicity, cell-based; conditions: hamster, read-out: Ratio IC50
[5] = tested on: Plasmodium falciparum; assay: Antiplasmodial activity against chloroquine-sensitive Plasmodium falciparum D10; type: functional, organism-based

Row | Compound | IC50 [1] [nM] | IC50 [2] [nM] | Ratio IC50 [3] | selectivity ratio [4] | IC50 [5] [nM]
1 | C[C@H]1[C@@H](OCCN(CCNc2ccnc3cc(Cl)ccc23)CCO[C@H]2O[C@@H]3O[C@]4(C)CC[C@H]5[C@H](C)CC[C@@H]([C@H]2C)[C@@]35OO4)O[C@@H]2O[C@]3(C)CC[C@H]4[C@H](C)CC[C@@H]1[C@@]24OO3 | 10 | 46.1 | 6 | 1360 | 7.37
2 | C[C@H]1[C@@H](OCCN(CCCNc2ccnc3cc(Cl)ccc23)CCO[C@H]2O[C@@H]3O[C@]4(C)CC[C@H]5[C@H](C)CC[C@@H]([C@H]2C)[C@@]35OO4)O[C@@H]2O[C@]3(C)CC[C@H]4[C@H](C)CC[C@@H]1[C@@]24OO3 | 0.68 | 28.4 | 5 | 128 | 5.31
3 | C[C@H]1[C@@H](OCCN(CCCCNc2ccnc3cc(Cl)ccc23)CCO[C@H]2O[C@@H]3O[C@]4(C)CC[C@H]5[C@H](C)CC[C@@H]([C@H]2C)[C@@]35OO4)O[C@@H]2O[C@]3(C)CC[C@H]4[C@H](C)CC[C@@H]1[C@@]24OO3 | 5.43 | 205 | 2 | 61 | 89
4 | C[C@H]1[C@@H](O[N+]2(CCO[C@H]3O[C@H]4O[C@]5(C)CC[C@H]6[C@H](C)CC[C@@H]([C@H]3C)[C@@]46OO5)CCN(CCNc3ccnc4cc(Cl)ccc34)CC2)O[C@@H]2O[C@]3(C)CC[C@H]4[C@H](C)CC[C@@H]1[C@@]24OO3.[Br-] | 74.8 | 55.7 | 3 | 3810 | 19.6
5 | C[C@H]1[C@@H](O)O[C@@H]2O[C@@]3(C)CC[C@H]4[C@H](C)CC[C@@H]1[C@@]24OO3 [ARTENIMOL] |  | 2.09 |  |  | 5.11
6 | CC[C@H]1CN2CCc3cc(OC)c(OC)cc3[C@@H]2C[C@@H]1C[C@H]1NCCc2cc(OC)c(OC)cc21 [EMETINE] |  |  | 0.4 |  | 
